In brackets after ≈: the same amount, converted by molar mass.
How the values were obtained:
Format in all cases: functional
[1] = tested on: Mycobacterium tuberculosis; assay: Compound was evaluated for in vitro anti-mycobacterial activity against Mycobacterium tuberculosis
[2] = tested on: Mycobacterium tuberculosis; assay: In vitro anti-mycobacterial activity against multiple sensitive strains of Mycobacterium tuberculosis at 0.50 ug/mL
[3] = tested on: Mycobacterium tuberculosis; assay: In vitro anti-mycobacterial activity against multiple sensitive strains of Mycobacterium tuberculosis at 2 ug/mL
[4] = tested on: Mycobacterium tuberculosis; assay: In vitro anti-mycobacterial activity against multiple sensitive strains of Mycobacterium tuberculosis at 0.125 ug/mL
[5] = tested on: Mycolicibacterium fortuitum; assay: Compound was evaluated for in vitro anti-mycobacterial activity against Mycobacterium fortuitum
Mycobacterium xenopi = assay: Compound was evaluated for in vitro anti-mycobacterial activity against Mycobacterium xenopi
Mycobacterium avium [6] = assay: Compound was evaluated for in vitro anti-mycobacterial activity against MAC 101
Mycobacterium malmoense = assay: Compound was evaluated for in vitro anti-mycobacterial activity against Mycobacterium malmoense
Mycobacterium simiae = assay: Compound was evaluated for in vitro anti-mycobacterial activity against Mycobacterium simiae
Mycobacterium avium [7] = assay: Compound was evaluated for in vitro anti-mycobacterial activity against Mycobacterium avium complex (MAC) ATCC 49601
Mycobacterium avium [8] = assay: Compound was evaluated for in vitro anti-mycobacterial activity against Mycobacterium avium complex by 90%
Mycobacterium avium [9] = assay: Compound was evaluated for in vitro anti-mycobacterial activity against Mycobacterium avium complex by 50%
[10] = tested on: Mycobacterium tuberculosis; assay: Compound was evaluated for in vitro anti-mycobacterial activity against Mycobacterium tuberculosis H37Rv
[11] = tested on: Mycobacterium tuberculosis; assay: In vitro anti-mycobacterial activity against multiple sensitive strains of Mycobacterium tuberculosis at 0.03 ug/mL

Row | SMILES | MIC [1] [µg/mL] | No. of strains [2] | No. of strains [4] | MIC [5] [µg/mL] | MIC (Mycobacterium xenopi) [µg/mL] | MIC (Mycobacterium avium [6]) [µg/mL] | MIC (Mycobacterium malmoense) [µg/mL] | MIC (Mycobacterium simiae) [µg/mL] | MIC (Mycobacterium avium [7]) [µg/mL] | other results
1 | CC(=O)NC[C@H]1CN(c2ccc(N3CC[S+]([O-])CC3)c(F)c2)C(=O)O1 | < 0.125 | – | – | – | – | – | – | – | – | –
2 | CC(=O)NC[C@H]1CN(c2ccc(N3CCS(=O)(=O)CC3)c(F)c2)C(=O)O1 | – | 4 | 1 | – | – | – | – | – | – | No. of strains [3]: 1
3 | CC[C@H]1OC(=O)[C@H](C)[C@@H](O[C@H]2C[C@@](C)(OC)[C@@H](O)[C@H](C)O2)[C@H](C)[C@@H](O[C@@H]2O[C@H](C)C[C@H](N(C)C)[C@H]2O)[C@](C)(O)C[C@@H](C)CN(C)[C@H](C)[C@@H](O)[C@]1(C)O [AZITHROMYCIN] | – | – | – | > 64 | 1 (≈ 1.34 µM) | 4 (≈ 5.34 µM) | 16 (≈ 21.4 µM) | 4 (≈ 5.34 µM) | 4 (≈ 5.34 µM) | –
4 | NNC(=O)c1ccncc1 [ISONIAZID] | 0.2 (≈ 1.46 µM) | – | – | – | – | – | – | – | – | –
5 | CC(=O)NC[C@H]1CN(c2ccc(N3CCSCC3)c(F)c2)C(=O)O1 [SUTEZOLID] | – | 2 | 2 | 8 (≈ 22.6 µM) | 2 (≈ 5.66 µM) | 0.5 (≈ 1.41 µM) | 2 (≈ 5.66 µM) | 2 (≈ 5.66 µM) | 4 (≈ 11.3 µM) | MIC (Mycobacterium avium [8]): 4 µg/mL (≈ 11.3 µM); MIC (Mycobacterium avium [9]): 2 µg/mL (≈ 5.66 µM); MIC [10]: < 0.125 µg/mL; No. of strains [11]: 1

Reference: ChEMBL document CHEMBL1129577, “Identification of a novel oxazolidinone (U-100480) with potent antimycobacterial activity” (1996)
